Experimental data: patent US20120028968A1 (priority 2009, published 2012)
Counter-ions that a name gives are not always drawn.

Biological target: α7-subtype of nicotinic receptors (Rattus norvegicus, UniProt Q05941)
Experiment: biochemical
Assay type: binding

Chain of α7-subtype of nicotinic receptors (Q05941 23-502): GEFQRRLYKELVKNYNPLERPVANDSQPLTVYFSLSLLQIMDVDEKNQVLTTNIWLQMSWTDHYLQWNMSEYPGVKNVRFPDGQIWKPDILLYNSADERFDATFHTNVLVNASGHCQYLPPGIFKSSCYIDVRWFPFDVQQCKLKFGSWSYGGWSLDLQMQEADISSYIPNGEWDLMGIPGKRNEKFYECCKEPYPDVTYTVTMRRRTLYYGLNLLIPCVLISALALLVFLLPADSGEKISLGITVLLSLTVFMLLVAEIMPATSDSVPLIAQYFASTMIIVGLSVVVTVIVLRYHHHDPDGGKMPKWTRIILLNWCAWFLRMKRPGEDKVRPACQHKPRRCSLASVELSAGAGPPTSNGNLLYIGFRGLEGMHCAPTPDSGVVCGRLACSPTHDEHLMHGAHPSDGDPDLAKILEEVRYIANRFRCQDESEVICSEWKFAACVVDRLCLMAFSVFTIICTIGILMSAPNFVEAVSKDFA

c1ccc2c(c1)oc1c(-c3nnc(N4CCN5CCC4CC5)o3)cccc12 [Compound 1, 4-(5-Dibenzofuran-4-yl-[1,3,4]oxadiazol-2-yl)-1,4-diaza-bicyclo[3.2.2]nonane fumaric acid salt]
IC50: 16 nM
